{"source": "paper PMC7310027", "about": "“PET imaging of soluble epoxide hydrolase in non-human primate brain with [^18F]FNDP” (EJNMMI Research, 2020)", "key": {"[1]": {"tested_on": "sEH", "parameters": "method as in PMID 27417650", "settings": "self-blockade experiments; cited from earlier work"}, "[2]": {"parameters": "method as in PMID 27417650", "settings": "mouse brain; cited from earlier work"}, "[3]": {"assay": "Murine radiometabolite analysis (blood and brain) by RP-HPLC", "assay_type": "in vivo, CD-1 mice", "procedure": "Male CD-1 mice (25–26 g) were injected via the lateral tail vein with 37 MBq of high specific activity (1.1 TBq/μmol or 29.7 Ci/μmol) [^18F]FNDP. The mice were sacrificed by cervical dislocation at 10 and 30 min after injection, and a terminal blood sample was obtained. The mouse brains were rapidly removed, homogenized in 2 mL of ACN:H2O 50%–50% (vol) with 0.06 M ammonium formate to extract parent tracer and radiometabolites, centrifuged at 20,000 g at 4 °C. Resulting supernatants were analyzed by reverse-phase (RP)-HPLC."}, "[4]": {"tested_on": "soluble epoxide hydrolase (sEH)", "assay": "Baboon [^18F]FNDP PET, dose-escalation blocking with AR-9281 (Lassen plot, occupancy)", "assay_type": "in vivo, baboon (Papio anubis)", "procedure": "PET images were acquired using a CPS/CTI high-resolution research tomograph (HRRT), which has an axial resolution (FWHM) of 2.4 mm and in-plane resolution of 2.4–2.8 mm. […] These blocking studies were performed 27 to 43 days apart from each other to ensure full animal recovery. The animals had no food for 12 h prior to each PET study. Anesthesia was induced with intramuscular ketamine (7.5–10 mg/kg) and maintained with a continuous intravenous infusion of propofol at 0.3–0.4 mg/kg/min throughout the PET experiment. One venous catheter was inserted for the radioligand injection, and one arterial catheter was inserted to obtain arterial blood samples. Baboons were intubated to facilitate respiration, and circulatory volume was maintained by constant infusion of isotonic saline. Physiological vital signs including heart rate, blood pressure, electrocardiogram, and oxygen saturation were monitored continuously throughout the study.\nThe animals were positioned in the PET scanner with the head immobilized using a thermoplastic mask. […] The 90-min dynamic PET acquisition was then started in three-dimensional list mode simultaneously with an intravenous bolus injection of [^18F]FNDP. […]\nNext, kinetic modeling was performed based on the TACs and the metabolite-corrected arterial plasma input functions. For brain uptake, the primary outcome measure was the regional brain distribution volume (VT) of [^18F]FNDP, defined as concentration of the radiotracer in regional tissue relative to that in blood at equilibrium. We evaluated which compartmental models (e.g., two-tissue-three-compartment (2TCM) or one-tissue-two-compartment (1TCM)) best described the [^18F]FNDP PET data, using statistical model selection criteria, such as the Akaike information criterion. For comparison, the Logan graphical method (t* = 30 min) was also used to compute regional VT, as well as generating voxel-wise parametric images of VT [31].\nFor blocking studies, occupancy of sEH by FNDP was calculated using regional VT values as Eq 1 Occupancy=ΔVT/VTBaseline−VND,\nwhere VND, the distribution volume of non-displaceable radioligand, was obtained from the Lassen plot, i.e., using a scatterplot of ΔVT (i.e., baseline VT minus post-blocking VT) versus baseline VT of all regions. […] When that condition was satisfied, VND was given as the intercept of the regression line with the X-axis. The non-displaceable binding potential (BPND) was computed as VT /VND − 1."}, "[5]": {"parameters": "method as in PMID 27417650", "settings": "baboon brain; cited from earlier work"}, "[6]": {"assay": "Baboon plasma radiometabolite analysis by HPLC", "assay_type": "in vivo, baboon (Papio anubis)", "procedure": "Measurement of the arterial plasma input function was conducted through collection of ~ 40 blood samples over the course of the 90-min dynamic PET study. […] Samples were then centrifuged at 1200 × g, and the plasma radioactivity was measured with a cross-calibrated PerkinElmer Wizard 2480 automatic gamma counter.\nSelect plasma samples (0, 5, 10, 20, 30, 60, and 90 min) were analyzed for radiometabolites using high-performance liquid chromatography (HPLC). The modified column-switching HPLC method was used. The HPLC system consisting of a 1260 infinity quaternary pump, a 1260 infinity column compartment module, a 1260 infinity UV detector, and a Raytest GABI Star radiation detector, was operated with OpenLab CDS EZChrom (A.01.04) software. […] After 1 min of isocratic elution, analytical mobile phase composed of 65% acetonitrile and 35% water with 0.06 M trimethylamine (at pH = 7.2, adjusted with phosphoric acid) was applied to direct non-polar compounds trapped on the capture column to an analytical column (Gemini C18(2), 10 μm, 4.6 × 250 mm) and detectors at 2 mL/min. The HPLC system was standardized for mass using non-radioactive FNDP prior to analysis of the blood plasma samples, which were spiked with 5 μL of non-radioactive FNDP at a concentration of 1 mg/mL."}}, "data": [{"smiles": "O=C(NCCC(c1ccccc1)c1ccccc1)c1ccc([18F])nc1", "note": "[[^18F]FNDP, N-(3,3-diphenylpropyl)-6-^18F-fluoronicotinamide]", "values": [{"measurement": "binding specificity for sEH", "setting": "[1]", "result": "~ 95%"}, {"measurement": "brain uptake, injected dose per gram of tissue", "setting": "[2]", "result": 5, "unit": "% ID/g"}, {"measurement": "fraction of radioactivity by HPLC (Met-1, Met-2, parent)", "setting": "[3]; Mouse blood (10 min)", "result": "63.4 ± 4.4", "unit": "%"}, {"measurement": "fraction of radioactivity by HPLC (Met-1, Met-2, parent)", "setting": "[3]; Mouse blood (30 min)", "result": "50.1 ± 10.5", "unit": "%"}, {"measurement": "fraction of radioactivity by HPLC (Met-1, Met-2, parent)", "setting": "[3]; Mouse brain (10 min)", "result": "99.2 ± 0.3", "unit": "%"}, {"measurement": "fraction of radioactivity by HPLC (Met-1, Met-2, parent)", "setting": "[3]; Mouse brain (30 min)", "result": "98.3 ± 0.3", "unit": "%"}, {"measurement": "K1 (2TCM)", "setting": "[4]; 0.02-mg/kg AR-9281 blocking scan, Baboon3", "result": "0.170 ± 0.021", "unit": "mL/cm^3/min"}, {"measurement": "K1 (2TCM)", "setting": "[4]; 0.1-mg/kg AR-9281 blocking scan, Baboon3", "result": "0.179 ± 0.026", "unit": "mL/cm^3/min"}, {"measurement": "K1 (2TCM)", "setting": "[4]; 1-mg/kg AR-9281 blocking scan, Baboon3", "result": "0.166 ± 0.032", "unit": "mL/cm^3/min"}, {"measurement": "VND (distribution volume of non-displaceable radioligand)", "setting": "[4]; Lassen plot, AR-9281 blocking scans, Baboon3", "result": "0.865 ± 0.066", "unit": "mL/mL"}, {"measurement": "specific binding (binding specificity)", "setting": "[4]; baboon brain", "result": "91.70 ± 1.74", "unit": "%"}, {"measurement": "total distribution volume (VT)", "setting": "[4]; male, baboon (Papio anubis), brain, intravenous, read-out: high-dose blocking VT", "result": "1 ± 0.09"}, {"measurement": "brain uptake, standardized uptake value (SUV)", "setting": "[5]", "result": 4}, {"measurement": "fraction of radioactivity by HPLC (Met-1, Met-2, parent)", "setting": "[6]; Baboon blood (10 min)", "result": "77.0 ± 3.6", "unit": "%"}, {"measurement": "fraction of radioactivity by HPLC (Met-1, Met-2, parent)", "setting": "[6]; Baboon blood (30 min)", "result": "46.5 ± 6.4", "unit": "%"}, {"measurement": "fraction of radioactivity by HPLC (Met-1, Met-2, parent)", "setting": "[6]; Baboon blood (60 min)", "result": "28.3 ± 9.3", "unit": "%"}, {"measurement": "fraction of radioactivity by HPLC (Met-1, Met-2, parent)", "setting": "[6]; Baboon blood (90 min)", "result": "21.8 ± 7.0", "unit": "%"}, {"measurement": "suggested fraction of brain radioactivity that is parent", "setting": "[6]; baboon brain, extrapolated", "result": "> 95", "unit": "%"}]}]}
